From patent US8592468B2, “Bacterial thioredoxin reductase inhibitors and methods for use thereof” (Thioredoxin Systems AB, priority 2006, dated 2013)
≈ marks a conversion by molar mass, not a printed value. Where two headings read alike, the source gives them in different places.

What was measured:
wild type DHB4 E. coli = test: Bacterial inhibition by ebselen derivates, MIC; conditions: for MIC: Escherichia coli, DHB4E.COLI, 4 h, read-out: MIC for wild type DHB4 E. coli; for MIC for wild type DHB4 E. coli: LB, 37° C., 4 hrs, OD600 below 10% of DMSO control; for sensitivity of gshA^− or gor^− strains compared with wt strain: E. coli DHB4 strains
Method: (§5) E. coli DHB4 strains wt, gshA^−, gor^−, oxyR^− were cultured overnight in LB medium. […] OD 600 was detected and DMSO was used as the control. […] The data are the means of two experiments.

Gor^- DHB4 E. coli = test: Bacterial inhibition by ebselen derivates, MIC; conditions: for MIC: Escherichia coli, 4 h, read-out: MIC for Gor^- DHB4 E. coli; for MIC for Gor^- DHB4 E. coli: LB, 37° C., 4 hrs, OD600 below 10% of DMSO control
Method: as §5

E. coli TrxR [1] = target: T1, E. coli TrxR (Escherichia coli (strain K12), UniProt P0A9P4); test: Measurement of IC50 of ebselen derivates for E. coli TrxR (DTNB assay); assay type: biochemical
T1 sequence (P0A9P4 2-321 limits assumed): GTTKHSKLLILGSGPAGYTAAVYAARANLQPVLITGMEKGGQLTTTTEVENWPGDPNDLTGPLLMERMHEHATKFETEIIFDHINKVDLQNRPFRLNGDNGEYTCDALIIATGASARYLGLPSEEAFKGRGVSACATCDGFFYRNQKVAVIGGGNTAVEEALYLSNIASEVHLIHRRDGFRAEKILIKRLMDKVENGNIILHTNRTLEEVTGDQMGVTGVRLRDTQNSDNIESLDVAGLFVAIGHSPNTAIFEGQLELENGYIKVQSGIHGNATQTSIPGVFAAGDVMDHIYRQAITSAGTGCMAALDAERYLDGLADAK
Method: For screening of different classes of ebselen derivatives as inhibitors of E. coli TrxR, the compounds of different concentration (1-40 μM) were incubated for a minute with mixture containing 100 nM E. coli TrxR, 200 μM NADPH and 2 μM of E. coli Trx. Then 1 mM DTNB was added and the enzyme activity was followed by the initial linear increase at A412 for 5 minutes.
(§1) All the benzisoselenazol-3(2H)-one and bisbenzisoselenazol-3(2H)-one derivatives were tested as potential E. coli TrxR inhibitors by standard DTNB assay. IC50 values were calculated by following the activity of TrxR reducing DTNB by NADPH at 412 nm. The reactions were started by adding 1 mM DTNB to the mixture of 100 nM TrxR, 2 μM Trx, 240 μM NADPH, and different concentration of inhibitor (1-40 μM). […] The reactions were started by adding 6 nM TrxR at room temperature. Inhibition constants (Ki) for all the compounds were measured from Dixon plot (FIGS. 12A-12F), which plots 1/v versus [I] (v=A412/min, I=Inhibitor concentration, FIGS. 12A-12F). Measured IC50 and Ki values (Table 5) indicate that the compounds EbSe 6-9, 12-16 are potent inhibitors for E. coli TrxR. The presence of covalent bond between selenium and nitrogen is so important for the biological property of ebselen derivatives.

E. coli TrxR [2] = target: T1, E. coli TrxR; test: Measurement of Ki of ebselen derivates for E. coli TrxR (Dixon plot, DTNB assay); assay type: biochemical
Method: The detailed inhibition studies using 0.001-4 μM inhibitor were performed in quartz cuvettes and the assay mixture of 500 μL containing E. coli TrxR (6 nM), E. coli Trx (1 or 2 or 4 μM), NADPH (240 μM), and DTNB (1 mM using Zeiss or Ultrospec 3000 Uv-visible spectrophotometer. E. coli TrxR activities were subsequently determined using the standard DTNB assay.
as §1

gshA^- DHB4 E. coli = test: Bacterial inhibition by ebselen derivates, MIC; conditions: LB, 37° C., 4 hrs, OD600 below 10% of DMSO control
Method: as §5

Mammalian TrxR [3] = target: Mammalian TrxR (Bos taurus (Bovine), UniProt O62768); test: Compounds as substrates of mammalian (calf thymus) TrxR, NADPH consumption; assay type: biochemical
Chain of Mammalian TrxR (Bos taurus (Bovine), UniProt O62768) (O62768 whole entry, looked up): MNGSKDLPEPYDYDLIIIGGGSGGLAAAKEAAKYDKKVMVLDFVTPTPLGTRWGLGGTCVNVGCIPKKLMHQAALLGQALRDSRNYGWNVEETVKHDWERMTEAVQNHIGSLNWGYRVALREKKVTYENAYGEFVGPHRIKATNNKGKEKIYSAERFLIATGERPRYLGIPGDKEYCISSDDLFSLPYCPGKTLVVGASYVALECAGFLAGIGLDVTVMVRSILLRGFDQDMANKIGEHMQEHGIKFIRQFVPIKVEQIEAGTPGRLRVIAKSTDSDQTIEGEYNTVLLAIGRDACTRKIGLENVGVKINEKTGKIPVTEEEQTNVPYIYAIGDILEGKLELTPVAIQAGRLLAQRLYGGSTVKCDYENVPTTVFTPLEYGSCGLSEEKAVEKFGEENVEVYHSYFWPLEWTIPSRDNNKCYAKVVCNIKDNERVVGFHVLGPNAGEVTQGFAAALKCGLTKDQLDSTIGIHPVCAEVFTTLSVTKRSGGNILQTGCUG
Method: (§2) FIGS. 6A and 6B show ebselen and its sulphur analogue, PZ25, as substrates of calf-thymus TrxR and PZ25 as substrate of E. coli TrxR. In FIG. 6A, 10 μM of ebselen (▴) and 10 μM of PZ25 (▪) were used as substrate of 25 nM calf thymus TrxR. In FIG. 6B, 10 μM of PZ25 was used as substrate for 10 nM calf thymus TrxR (◯) and 10 nM of E. coli TrxR (●). Reactions were started by adding enzymes in cuvettes containing 500 μl TE buffer with 100 μM NADPH, of which the consumption were followed by the changes of the absorption at 340 nm against identical blank without enzymes.
Ebselen diselenide (Δ) and PZ25 disulfide (◯) were reduced with 10 nM calf thymus TrxR, while PZ25 disulphide was reduced by 10 nM of E. coli TrxR (●). Reactions were started by adding enzymes to cuvettes containing 500 μl TE buffer with 100 μM NADPH and 16 μM compounds. The NADPH consumption was followed by the changes of the absorption at 340 nm against identical blank without enzymes.
(§3) The activity of the enzyme was determined at room temperature using an Ultrospec 3000 UV/Visual spectrophotometer (Amersham Biosciences). Measurements of TrxR activity from both calf thymus and E. coli were performed in a buffer containing 50 mM Tris-Cl, 1 mM EDTA, pH 7.5, generally with 100 μM NADPH and the indicated amount of the drugs. The enzyme-catalysed reactions were followed at 340 nm using the standard calculation of NADPH oxidation to NADP^+ with a molar extinction coefficient of 6200 M^−1 cm^−1 (32, 34). The conditions of the assay of bacterial thioredoxin reductase have been described (32, 34) using either 1 mM DTNB or 160 μM insulin as a substrate. In DTNB coupled assays, 240 μM NADPH and 1 mM DTNB were used in the TE buffer and formation of the TNB was measured at 412 nm, where TNB has an extinction coefficient of 13600 M^−1 cm^−1.

E. coli TrxR [4] = target: T1, E. coli TrxR; assay type: biochemical
Method: as §2, with “In” for “FIGS. 6A and 6B show ebselen and its sulphur analogue, PZ25, as substrates of calf-thymus TrxR and PZ25 as substrate of E. coli TrxR. In”
Reactions were started by adding enzymes to cuvettes containing 500 μl TE buffer with 100 μM NADPH and 16 μM compounds. The NADPH consumption was followed by the changes of the absorption at 340 nm against identical blank without enzymes.
as §3, with “Measurements of TrxR activity from both calf thymus and E. coli were performed in a buffer containing 50 mM Tris-Cl, 1 mM EDTA, pH 7.5, generally with 100 μM NADPH and the indicated amount of the drugs.” left out
(§4) Further we examined the effect of ebselen in the reduction of disulphide by E. coli Trx and TrxR using both DTNB and insulin as substrates. […] FIGS. 4A and 4B show the effect of ebselen (4A) and ebselen diselenide (4B) on DTNB reduction by E. coli thioredoxin and thioredoxin reductase. Assays in semi-microcuvettes with 0.5 ml solution contained 0.24 mM NADPH, 1 mM DTNB in 50 mM Tris-Cl/1 mM EDTA, pH 7.5 buffer. (A) In the presence of 2 μM (grey filled points), 5 μM (white filled points) and 10 μM (black filled points) of E. coli Trx and 7.6 nM of E. coli TrxR with ebselen at concentrations of zero (squares), 0.5 μM (triangles), 1 μM (rhombus), and 2 μM (rounds), the increase in A412 was measured against a blank. (B) In the presence of 2 μM (grey filled points), 5 μM (white filled points) and 10 μM (black filled points) of E. coli Trx and 10 nM of E. coli TrxR, with ebselen diselenide at concentrations of zero (squares), 1 μM (triangles) and 2 μM (rounds), the increase in A412 was measured against a blank.

E. coli TrxR [5] = target: T1, E. coli TrxR; test: Inhibition of E. coli TrxR reduction of Trx, DTNB coupled assay (Lineweaver-Burk); assay type: biochemical
Method: FIGS. 4A and 4B show the effect of ebselen (FIG. 4A) and ebselen diselenide (FIG. 4B) on DTNB reduction by E. coli thioredoxin and thioredoxin reductase. Assays were contained in 0.50 ml semi-microcuvettes containing 0.24 mM NADPH, 1 mM DTNB in 0.10 M Tris-Cl, pH 8.0, 1 mM EDTA. The increase in A412 was measured against a blank using 10 nM E. coli TrxR in the presence of 2 μM (grey filled points), 5 μM (white filled points), 10 μM (black filled points) E. coli Trx with 0 (squares), 0.5 μM (triangles), 1 μM (rhombus), 2 μM (rounds) of ebselen or ebselen diselenide.
(A) Ebselen concentrations were 0 μM (▴), 0.5 μM (∀), 1 μM (▪) and 2 μM (Δ). […] (B) Ebselen concentrations were 0 μM (▴), 1 μM (▪) and 2 μM (∀).
as §3, with “Measurements of TrxR activity from both calf thymus and E. coli were performed in a buffer containing 50 mM Tris-Cl, 1 mM EDTA, pH 7.5, generally with 100 μM NADPH and the indicated amount of the drugs.” left out
as §4

H. pylori strains = test: Inhibition of the growth of H. pylori by PZ-25 (ebsulfur); assay type: cell-based
H. pylori TrxR = H. pylori TrxR (Helicobacter pylori (strain ATCC 700392 / 26695) (Campylobacter pylori), UniProt P56431); test: Inhibition of H. pylori TrxR by ebsulfur, insulin reduction assay; assay type: biochemical; conditions: 4, 20, and 40 μM
Chain of H. pylori TrxR (P56431 whole entry, looked up): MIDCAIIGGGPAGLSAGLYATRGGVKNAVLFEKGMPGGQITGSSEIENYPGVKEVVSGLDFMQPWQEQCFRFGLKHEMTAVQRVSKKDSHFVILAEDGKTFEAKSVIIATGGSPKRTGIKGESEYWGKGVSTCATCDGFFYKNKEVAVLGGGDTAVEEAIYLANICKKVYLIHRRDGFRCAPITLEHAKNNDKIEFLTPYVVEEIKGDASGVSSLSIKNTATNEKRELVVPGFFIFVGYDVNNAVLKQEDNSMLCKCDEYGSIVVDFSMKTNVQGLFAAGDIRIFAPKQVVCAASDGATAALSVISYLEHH
Method: H. pylori TrxR activity was followed by insulin reduction after 4 μM of H. pylori Trx addition, where a decrease in absorbance at 340 nm represents activity.

Staphylococcus aureus = conditions: compared with PZ51; cited from earlier work
Mammalian TrxR [6] = conditions: from reference; cited from earlier work
E. coli Trx-(SH)2 = E. coli Trx-(SH)2 (Escherichia coli (strain K12), UniProt P0AA25); conditions: fluorescence spectroscopy; cited from earlier work
[7] = 100 nM TrxR, 2 μM Trx, 1 mM DTNB, read-out: IC50 for E. coli TrxR
[8] = 6 nM TrxR, Trx 1, 2 or 4 μM, Dixon plot, read-out: Ki for E. coli TrxR

O=c1c2ccccc2[se]n1-c1ccc(Cl)cc1 [EbSe 7]
MIC (wild type DHB4 E. coli): 34 µM (≈ 10.5 µg/mL)
MIC (Gor^- DHB4 E. coli): 23 µM (≈ 7.1 µg/mL)

Cc1cc(Cl)ccc1-n1[se]c2ccccc2c1=O [EbSe 8]
MIC (wild type DHB4 E. coli): 47 µM (≈ 15.2 µg/mL)
MIC (Gor^- DHB4 E. coli): 24 µM (≈ 7.74 µg/mL)

O=C(O)c1ccccc1-n1[se]c2ccccc2c1=O [EbSe 9]
IC50 (E. coli TrxR [1]): 7500 nM
Ki (E. coli TrxR [2]): 1200 nM
MIC (wild type DHB4 E. coli): 49 µM (≈ 15.6 µg/mL)
MIC (Gor^- DHB4 E. coli): 31 µM (≈ 9.86 µg/mL)

O=C(O)c1ccc(-n2[se]c3ccccc3c2=O)cc1 [EbSe 10]
IC50 (E. coli TrxR [1]): 15000 nM

O=c1c2ccccc2[se]n1-c1ccc(Cl)cn1 [EbSe 11]
IC50 (E. coli TrxR [1]; [7]): > 40000 nM
MIC for wild type DHB4 E. coli (wild type DHB4 E. coli): No Inhibition
MIC for gshA^- DHB4 E. coli (gshA^- DHB4 E. coli): No Inhibition
MIC for Gor^- DHB4 E. coli (Gor^- DHB4 E. coli): No Inhibition

O=c1c2ccccc2[se]n1-c1ncccc1[N+](=O)[O-] [EbSe 12]
IC50 (E. coli TrxR [1]; [7]): 3000 nM
Ki (E. coli TrxR [2]; [8]): 250 nM
MIC for wild type DHB4 E. coli (wild type DHB4 E. coli): No Inhibition
MIC for gshA^- DHB4 E. coli (gshA^- DHB4 E. coli): No Inhibition
MIC for Gor^- DHB4 E. coli (Gor^- DHB4 E. coli): No Inhibition

O=c1c2ccccc2[se]n1-c1ccncc1 [EbSe 13]
MIC (wild type DHB4 E. coli): 45 µM (≈ 12.4 µg/mL)
MIC (Gor^- DHB4 E. coli): 24 µM (≈ 6.6 µg/mL)

O=c1c2ccccc2[se]n1CCn1[se]c2ccccc2c1=O [EbSe 14]
sensitivity of gshA^− or gor^− strains compared with wt strain (wild type DHB4 E. coli): same sensitivity
MIC (wild type DHB4 E. coli): 23 µM (≈ 9.71 µg/mL)
MIC (Gor^- DHB4 E. coli): 19 µM (≈ 8.02 µg/mL)

O=c1c2ccccc2[se]n1CCCn1[se]c2ccccc2c1=O [EbSe 15]
Ki (E. coli TrxR [2]; [8]): 40 nM

O=c1c2ccccc2[se]n1CCCCCCn1[se]c2ccccc2c1=O [EbSe 16]
sensitivity of gshA^− or gor^− strains compared with wt strain (wild type DHB4 E. coli): same sensitivity
MIC (wild type DHB4 E. coli): 20 µM (≈ 9.57 µg/mL)
MIC (Gor^- DHB4 E. coli): 35 µM (≈ 16.7 µg/mL)

O=C(Nc1ccccc1)c1ccccc1SSc1ccccc1C(=O)Nc1ccccc1 [PZ25 disulphide]
Km (Mammalian TrxR [3]): 47 µM
kcat (Mammalian TrxR [3]): 25 s⁻¹
kcat/KM (Mammalian TrxR [3]): 533000 M⁻¹ s⁻¹
Km (E. coli TrxR [4]; E. coli TrxR): 27.6 µM
kcat (E. coli TrxR [4]; E. coli TrxR): 1.67 s⁻¹
kcat/KM (E. coli TrxR [4]; E. coli TrxR): 60500 M⁻¹ s⁻¹

O=c1c2ccccc2sn1-c1ccccc1 [PZ25]
inhibition of E. coli TrxR (in words) (E. coli TrxR [5]): not inhibitors
Km (Mammalian TrxR [3]): 2.5 µM
kcat (Mammalian TrxR [3]): 23.33 s⁻¹
kcat/KM (Mammalian TrxR [3]): 9.33e+06 M⁻¹ s⁻¹
kcat (E. coli TrxR [4]; E. coli TrxR): 11.7 s⁻¹
kcat/KM (E. coli TrxR [4]; E. coli TrxR): 4.67e+06 M⁻¹ s⁻¹
MIC (H. pylori strains; NCTC11637 strain): 1.56 µg/mL (≈ 6.86 µM)
MIC (H. pylori strains; strain YS-16): 0.39 µg/mL (≈ 1.72 µM)
H. pylori TrxR activity (H. pylori TrxR): inhibited
antibacterial activity of the sulphur analogue (Staphylococcus aureus): lost the antibacterial activity

O=C(Nc1ccccc1)c1ccccc1[Se][Se]c1ccccc1C(=O)Nc1ccccc1 [ebselen diselenide]
inhibition of E. coli TrxR (in words) (E. coli TrxR [5]): strongly inhibited
Ki (E. coli TrxR [5]; Ki (competitive inhibitor of Trx reduction by E. coli TrxR), from Lineweaver-Burk slopes): 460 ± 50 nM
Ki (E. coli TrxR [5]; read-out: Ki (competitive inhibitor of Trx reduction by E. coli TrxR), from Lineweaver-Burk slopes): 460 nM
oxidation of NADPH when directly added to E. coli TrxR and NADPH (E. coli TrxR [4]): no oxidations of NADPH
Km (Mammalian TrxR [6]): 40 µM
kcat (Mammalian TrxR [6]): 1.32 s⁻¹
kcat/KM (Mammalian TrxR [6]): 33000 M⁻¹ s⁻¹
second-order rate constant of reaction with reduced E. coli Trx (E. coli Trx-(SH)2): 1700 M⁻¹ s⁻¹
